BindingDB's records for doi:10.1016/j.ejmech.2019.07.019 (Isf College of Pharmacy, 2019)

Legend:
[1] = Inhibition of HIV1 3B Y181C mutant infected in human MT2 cells assessed as reduction in virus-induced cytopathogenicity after 3 days by BrightGlo luciferase reporter gene assay
[2] = Inhibition of HIV1 reverse transcriptase Y181C/K103N double mutant infected in human MT4 cells assessed as reduction in virus-induced cytopathogenicity

Compound | IC50 [1] [µM] | IC50 [2] [µM]
CCCCC(O)(c1c(NC(=O)OCC)[nH]c2ccc(Br)cc12)C(F)(F)F (configuration not stated) | 1.93 | 
COP(=O)(c1cc(C)cc(/C=C/C#N)c1)c1c(C(N)=O)[nH]c2ccc(Cl)cc12 (configuration not stated) [IDX899] |  | 11
